This experiment has as its system Staphylococcus aureus. The experiment can be described thus: Antimicrobial activity against Staphylococcus aureus at 100 ug/ml. The class given is functional, organism-based.

Activity calls are given as the source filed them. The rule behind the calls is not given here.

As to `CC(=O)OC(C)(C)[C@@H]1CC[C@](C)([C@H](O)COc2ccc(CCNC(=O)c3ccccc3)cc2)O1`, the result was inactive. For `CC(=O)O[C@@H](CC[C@]1(C)O[C@@H]1COc1ccc(CCNC(=O)C=C(C)C)cc1)C(C)(C)OC(C)=O`, the outcome was inactive. Regarding `COc1c2ccoc2nc2c(CC=C(C)C)c(O)ccc12`, the result was inactive. On to `CC(=O)O[C@@H](CC[C@]1(C)O[C@@H]1COc1ccc(CCNC(=O)c2ccccc2)cc1)C(C)(C)OC(C)=O`, for which the result was inactive.

For `CC(=O)O[C@H](COc1ccc(CCNC(=O)c2ccccc2)cc1)[C@@]1(C)CC[C@@H](C(C)(C)OC(C)=O)O1`, the outcome was inactive.

(Values after ChEMBL document CHEMBL1149721, “New Alkaloids from Haplophyllum tuberculatum” (J Nat Prod, 1992).)
